From ChEMBL document CHEMBL1799939, “Synthesis and biological evaluation of novel thiazolidinedione analogues as 15-hydroxyprostaglandin dehydrogenase inhibitors” (J Med Chem, 2011) come the findings set out here.

Calls of active or inactive are those of the source. The rule behind the calls is not given here.

Experiment [1] concerns the target T1, 15-hydroxyprostaglandin dehydrogenase [NAD(+)] (Homo sapiens) (UniProt P15428).
T1 sequence (whole entry): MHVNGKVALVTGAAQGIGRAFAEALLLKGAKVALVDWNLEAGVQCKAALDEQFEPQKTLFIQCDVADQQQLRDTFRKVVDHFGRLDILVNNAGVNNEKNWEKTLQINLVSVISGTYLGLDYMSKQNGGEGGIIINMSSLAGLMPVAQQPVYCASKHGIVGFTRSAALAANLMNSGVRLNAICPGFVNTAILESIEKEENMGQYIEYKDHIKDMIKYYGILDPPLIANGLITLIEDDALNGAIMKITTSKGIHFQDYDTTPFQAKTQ
The experiment is described as follows: Inhibition of human 15-PGDH in human A549 cells assessed as increase in IL1-beta stimulated PGE2 production at 5 uM after 5 hrs by enzyme immunoassay. Type of experiment: cell-based.

Experiment [2] addresses T2, 15-hydroxyprostaglandin dehydrogenase [NAD(+)] (Homo sapiens, UniProt P15428).
T2 sequence (P15428 whole entry): T1 sequence (whole entry)
The experiment is described as follows: Inhibition of human 15-PGDH expressed in Escherichia coli using PGE2 as substrate and NAD+ as coenzyme assessed as formation of NADH by spectrophotometric analysis.

Another experiment concerns HaCaT. Nature of the experiment: Wound healing activity in human HaCaT cells assessed as re-epithelialization at 5 uM after 48 hrs by inverted microscopic analysis relative to control. It counts as functional, cell-based.
For experiment [3], the target named is T1, 15-hydroxyprostaglandin dehydrogenase [NAD(+)] (Homo sapiens). The experiment is described as follows: Inhibition of human 15-PGDH in human A549 cells assessed as increase in IL1-beta stimulated PGE2 production after 5 hrs by enzyme immunoassay. It counts as cell-based.
The test system of experiment [4] is Cavia porcellus. Nature of the experiment: Increase in cochlear blood flow in guinea pig at 10 ug, iv measured after 40 mins. It counts as functional.
Experiment [5] concerns Cavia porcellus. Nature of the experiment: Increase in cochlear blood flow in guinea pig at 20 ug, iv measured after 50 mins. It counts as functional.
Experiment [6] has as its system A549. Nature of the experiment: Inhibition of COX1 expression in human A549 cells at 5 uM after 25 hrs by RT-PCR analysis. Type of experiment: functional, cell-based.
The subject of experiment [7] is A549. Nature of the experiment: Induction of PGT expression in human A549 cells at 5 uM after 25 hrs by RT-PCR analysis. It counts as functional, cell-based.
Experiment [8] has as its system A549. Nature of the experiment: Effect on COX2 expression in human A549 cells at 5 uM after 25 hrs by RT-PCR analysis. Type of experiment: functional, cell-based.
The subject of experiment [9] is A549. The experiment is described as follows: Effect on MRP4 expression in human A549 cells at 5 uM after 25 hrs by RT-PCR analysis. It counts as functional, cell-based.

Usually IC50 stands for the concentration at which inhibition is half-maximal. Regarding `O=C1N=C(O)S/C1=C\c1ccc(OCCC2CCCCC2)c(Br)c1`, the outcome (in experiment [1]; in the experiment with HaCaT) was Active. Besides, the half-inhibitory concentration (IC50) in [2] was 19 nM.

Consider `O=C1N=C(O)S/C1=C\c1ccc(OCCC2CCCCC2)cc1`, for which, in experiment [1], the outcome was Active.

Regarding `COc1cc(/C=C2\SC(=O)N(C)C2=O)ccc1OCCC1CCCCC1`, the Activity entry in experiment [3] was “Dose-dependent effect”. In [2], the half-maximal inhibitory concentration (IC50) is > 50000 nM.

In the case of `COc1cc(/C=C2\SC(=O)NC2=O)ccc1OCCC1CCCCC1`, the Activity was 22% in the experiment with Cavia porcellus [4], “Dose-dependent effect” in experiment [3] and 65% in the experiment with Cavia porcellus [5]. Moreover, the outcome (in [1]; with A549 [6]; in the experiment with A549 [7]) was Active. The IC50 in [2] worked out at 25 nM. Besides, the result in the experiment with A549 [8] and with A549 [9] was inactive.

As to `O=C1NC(=O)/C(=C/c2ccc(OC3CCCCC3)c(Cl)c2)S1`, the half-maximal inhibitory concentration (IC50) in experiment [2] turned out to be 47 nM.

On to `O=C1N=C(O)S/C1=C\c1ccc(OCCCCC2CCCCC2)c(Cl)c1`, for which the IC50 in experiment [2] was determined as 24 nM.

For the compound `O=C1N=C(O)S/C1=C\c1ccc(OCCC2CCCCC2)c(Cl)c1`, the outcome (in experiment [1]; in the experiment on A549 [6]; with A549 [7]) was Active. Also, the half-maximal inhibitory concentration (IC50) in experiment [2] was determined as 8 nM. Further, the result in the experiment on A549 [8] and with A549 [9] was inactive.

Consider `O=C1NC(=O)/C(=C/c2ccc(OCC3CCCCC3)c(Cl)c2)S1`, for which, in experiment [2], the IC50 is 28 nM.

In the case of `O=C1N=C(O)S/C1=C\c1ccc(OCCCC2CCCCC2)c(Cl)c1`, the IC50 in experiment [2] was found to be 10 nM.
